Measured values published in PMC6017738, “A Comparative Pharmacokinetic Study by UHPLC-MS/MS of Main Active Compounds after Oral Administration of Zushima-Gancao Extract in Normal and Adjuvant-Induced Arthritis Rats” (Molecules : A Journal of Synthetic Chemistry and Natural …, 2018).

Tests used:
[1] = Pharmacokinetics in normal rats after oral administration of Zushima-Gancao extract (UHPLC-MS/MS of plasma); assay type: in vivo; conditions: male, Sprague-Dawley, rat, oral Zushima-Gancao extract 10 mL/kg single dose, n = 6, mean ± SD
Protocol: (§1) The plasma concentration–time curves (C-T curves) of nine analytes are presented in Figure 2, and the corresponding pharmacokinetic parameters, including Cmax, Tmax, AUC (0–t), AUC (0–∞) (AUC: area under concentration-time curve), and t1/2, were obtained using DAS 3.0 pharmacokinetic software (Chinese Pharmacological Association, China). Statistical differences between groups were analyzed using Student’s t-tests, and p-values less than 0.05 were considered statistically significant.
(§2) The chromatography experiment was carried out using a UHPLC system (Thermo Fisher, San Jose, CA, USA), equipped with a Hypersil GOLD C18 column (100 mm × 2.1 mm, 3 μm, Thermo Fisher, San Jose, CA, USA) maintained at 35 °C. The mobile phase consisted of 0.05% formic acid in water (Solvent A) and acetonitrile (Solvent B), and the flow rate was 0.3 mL/min. In order to completely separate all the analytes, the 10 min gradient elution program was used as follows: 0–1 min, 10% B; 1–5 min, 10–90% B; 5–6 min, 90–100% B; 6–8 min, 100% B; 8–9 min, 100–10% B; 9–10 min, 10% B, and the sample injection volume was 3 μL.
(§3) Mass spectrometry detection was operated on TSQ Vantage triple-stage quadrupole mass spectrometer (Thermo Fisher, San Jose, CA, USA) equipped with an electrospray ionization (ESI) source. Quantification of the analytes was performed using selective reaction monitor (SRM) in the negative ionization mode. Spray voltage, sheath gas pressure, auxiliary gas pressure, vaporizer temperature, and capillary temperature were set as 3.0 kV, 45 arb, 25 arb, 450 °C, and 350 °C, respectively.
(§4) Male Sprague–Dawley (SD) rats weighing 180–220 g (SCXK-2012-0002) were supplied by Silaike Lab Animals Ltd. (Shanghai, China). They were all kept in a stable condition (temperature, 22 ± 2 °C; relative humidity, 45–60%) with 12 h light/dark cycles for five days before animal experiments.
(§5) Rats were randomly divided into normal and AA groups with six rats in each group. The arthritic model rats were prepared as our previous research [19]. AA rats were intracutaneously injected with 0.1 mL of FAC in the left hind footpad and normal rats were injected with sterile saline. The FAC solution was prepared as follows: bacillus calmette-guerin (BCG) was bathed in water at 80 °C for 30 min, and then dissolved in a liquid paraffin–lanolin mixture (3:2, v/v). Immediately prior to use, the FAC solution were sterilized for 30 min at 120 °C.
(§6) After model construction, the rats were fed for 20 days. All rats were fasted for 12 h before drug administration, with free access to water. Each rat was administered with Zushima-Gancao extract at a single dose of 10 mL/kg. Blood samples (approximately 0.3 mL) were collected into heparinized micro-centrifuge tubes from the postorbital venous plexus veins of rats at specific time points of 0, 0.08, 0.17, 0.33, 0.5, 1, 2, 3, 5, 8, 12, 24, and 36 h. All blood samples were centrifuged immediately at 5000 rpm for 6 min, and the plasma were obtained and stored at −80 °C until analysis.
(§7) A liquid–liquid extraction (LLE) method was applied to extract the compounds from thawed rat plasma samples, aliquots of 100 μL plasma sample were transferred into a 1.5 mL Eppendorf tube, and 10 μL of methanol, 10 μL of hydrochloric acid (2 mol/L), and 10 μL of IS (130 ng/mL) were added separately. The mixture was vortexed for 30 s, and 500 μL of ethyl acetate was added and mixed by vortexing for 10 min. The supernatant (about 450 μL) was transferred into another tube after centrifugation at 16,000 rpm for 10 min and then evaporated to dryness at 45 °C, 15 kPa in a Thermo SPD1010-230 SpeedVac Concentrator (Thermo Fisher, San Jose, CA, USA). The residue was dissolved in 100 μL of initial mobile phase by vortexing for 5 min, and a further centrifugation at 17,000 rpm for 10 min was applied after the residue was re-dissolved. The supernatant was injected into the UHPLC-MS/MS system for analysis.

[2] = Stability test of analytes in rat plasma (QC samples); assay type: physicochemical; conditions: for 24 h Stability RE: autosampler at 4 °C for 24 h; for Short-Term Stability RE: room temperature for 4 h; for Freeze-Thaw Stability RE: three freeze-thaw cycles; for Long-Term Stability RE: −80 °C for a week
Protocol: Stability. To evaluate the stability of each component during analysis, QC samples at low, middle, and high concentrations (three samples for each concentration) were tested under different conditions, including placing QC samples in the autosampler at 4 °C for 24 h, at room temperature for 4 h, at −80 °C for a week, and three freeze-thaw cycles.

[3] = Pharmacokinetics in adjuvant-induced arthritis (AA) rats after oral administration of Zushima-Gancao extract (UHPLC-MS/MS of plasma); conditions: for AUC(0-inf) / AUC(0-t) / Cmax / Tmax / half-life: male, Sprague-Dawley, rat, plasma, po, 10 mL/kg
Protocol: as §1, §2, §3, §4, §5, §6, §7

Row | Compound | AUC(0-inf) [1] [ng·h/mL] | AUC(0-t) [1] [ng·h/mL] | Cmax [1] [ng/mL] | Tmax [1] [h] | half-life [1] [h] | 24 h Stability RE ([2]; high concentration) [%] | Short-Term Stability RE ([2]; high concentration) [%] | Freeze-Thaw Stability RE ([2]; high concentration) [%] | Long-Term Stability RE ([2]; high concentration) [%] | 24 h Stability RE ([2]; low concentration) [%] | Short-Term Stability RE ([2]; low concentration) [%] | Freeze-Thaw Stability RE ([2]; low concentration) [%] | Long-Term Stability RE ([2]; low concentration) [%] | 24 h Stability RE ([2]; middle concentration) [%] | Short-Term Stability RE ([2]; middle concentration) [%] | Freeze-Thaw Stability RE ([2]; middle concentration) [%] | Long-Term Stability RE ([2]; middle concentration) [%] | AUC(0-inf) [3] [ng·h/mL] | AUC(0-t) [3] [ng·h/mL] | Cmax [3] [ng/mL] | further results
1 | O=c1ccc2ccc(O)cc2o1 [HDC, 7-hydroxycoumarin] | 148 ± 24.9 | 142 ± 24.4 | 193 ± 29.3 | 0.22 ± 0.08 | 2.86 ± 1.94 | 1.39 | 3.09 | 2.64 | −0.05 | −1.43 | −13.86 | −13.48 | −10.07 | −0.85 | −5.72 | −1.27 | −1.8 | 131 ± 29.1 | 127 ± 26.8 | 179 ± 98 | Tmax [3]: 0.22 ± 0.08 h; half-life [3]: 2.52 ± 1.82 h
2 | COc1cc2cc(Oc3ccc4ccc(=O)oc4c3)c(=O)oc2cc1O [DR, daphnoretin] | 163 ± 78.7 | 131 ± 58.1 | 14.4 ± 3.31 | 0.39 ± 0.31 | 14.5 ± 2.91 | −6.11 | −5.38 | −9.71 | −13.85 | −11.79 | −13.63 | 0.05 | −12.79 | −11.33 | −13.99 | −14.22 | −14.41 | 154 ± 79.8 | 86.2 ± 33.8 | 7.06 ± 3.82 | change of Cmax in AA rats versus normal rats ([3]; AA versus normal rats, p < 0.05): decreased remarkably; Tmax [3]: 0.42 ± 0.31 h; half-life [3]: 28.3 ± 9.39 h
